Test results reported in ChEMBL document CHEMBL4138086, “Design and synthesis of bis(indolyl)ketohydrazide-hydrazones: Identification of potent and selective novel tubulin inhibitors” (Eur J Med Chem, 2017).

Assays:
MCF7 [1] = experiment: Cytotoxicity against human MCF7 cells assessed as cell survival at 10 uM after 48 hrs by MTT assay relative to control; format: functional; conditions: MCF7, 48 h, read-out: Survival
Jurkat [2] = experiment: Cytotoxicity against human Jurkat cells assessed as cell survival at 10 uM after 48 hrs by MTT assay relative to control; format: functional; conditions: read-out: Survival
HCT-116 [3] = experiment: Cytotoxicity against human HCT116 cells assessed as cell survival at 10 uM after 48 hrs by MTT assay relative to control; format: functional; conditions: HCT-116, 48 h, read-out: Survival
MDA-MB-231 [4] = experiment: Cytotoxicity against human MDA-MB-231 cells assessed as cell survival at 10 uM after 48 hrs by MTT assay relative to control; format: functional; conditions: MDA-MB-231, 48 h, read-out: Survival
BT-474 [5] = experiment: Cytotoxicity against human BT474 cells assessed as cell survival at 10 uM after 48 hrs by MTT assay relative to control; format: functional; conditions: BT-474, 48 h, read-out: Survival
DU-145 = experiment: Cytotoxicity against human DU145 cells assessed as reduction in cell viability; format: functional, cell-based
P388 = experiment: Cytotoxicity against mouse P388 cells assessed as reduction in cell viability; format: functional, cell-based
BT-474 [6] = experiment: Cytotoxicity against human BT474 cells assessed as reduction in cell survival after 48 hrs by MTT assay; format: functional, cell-based; conditions: BT-474, 48 h
MDA-MB-231 [7] = experiment: Cytotoxicity against human MDA-MB-231 cells assessed as reduction in cell survival after 48 hrs by MTT assay; format: functional, cell-based; conditions: MDA-MB-231, 48 h
Jurkat [8] = experiment: Cytotoxicity against human Jurkat cells assessed as reduction in cell survival after 48 hrs by MTT assay; format: functional, cell-based
HCT-116 [9] = experiment: Cytotoxicity against human HCT116 cells assessed as reduction in cell survival after 48 hrs by MTT assay; format: functional, cell-based; conditions: HCT-116, 48 h
MCF7 [10] = experiment: Cytotoxicity against human MCF7 cells assessed as reduction in cell survival after 48 hrs by MTT assay; format: functional, cell-based; conditions: MCF7, 48 h
Jurkat [11] = experiment: Induction of apoptosis in human Jurkat cells increase in caspase 3/7 activity at 1 uM measured up to 180 mins by fluorescence assay relative to control; format: functional

SMILES | viability at 10 µM (MCF7 [1]) [%] | viability at 10 µM (Jurkat [2]) [%] | viability at 10 µM (HCT-116 [3]) [%] | viability at 10 µM (MDA-MB-231 [4]) [%] | viability at 10 µM (BT-474 [5]) [%] | also measured
COc1ccc(Cn2cc(/C=N/NC(=O)C(=O)c3c[nH]c4ccc(Br)cc34)c3cc(OC)ccc32)cc1 | 112 | 81.9 | 65.7 | 102 | 91.1 | –
O=C(N/C=C/c1c[nH]c2ccc(Br)cc12)C(=O)c1c[nH]c2c(O)cccc12 | – | – | – | – | – | IC50 (DU-145): 7.6 µM
O=C(N/C=C/c1c[nH]c2cc(Br)ccc12)C(=O)c1c[nH]c2ccccc12 | – | – | – | – | – | IC50 (DU-145): 7.6 µM
O=C(N/N=C/c1c[nH]c2ccc(F)cc12)C(=O)c1c[nH]c2ccccc12 | 105 | 56.7 | 85.1 | 102 | 112 | –
Brc1ccc2c(-c3c[nH]c(-c4c[nH]c5ccccc45)n3)c[nH]c2c1 [NORTOPSENTIN C] | – | – | – | – | – | IC50 (P388): 4.5 to 20.7 µM
COc1cccc2c1C(=O)c1c(O)c3c(c(O)c1C2=O)C[C@@](O)(C(=O)CO)C[C@@H]3O[C@H]1C[C@H](N)[C@H](O)[C@H](C)O1 [DOXORUBICIN] | 27 | 21 | 25 | 22.5 | 17.6 | IC50 (BT-474 [6]): 0.3 µM; IC50 (MDA-MB-231 [7]): 0.55 µM; IC50 (Jurkat [8]): 0.26 µM
O=C(N/N=C/c1c[nH]c2ccc(Br)cc12)C(=O)c1c[nH]c2ccccc12 | 35 | 25.5 | 26.3 | 34 | 82.4 | IC50 (MDA-MB-231 [7]): 5.6 µM; IC50 (HCT-116 [9]): 6.6 µM; IC50 (MCF7 [10]): 3.3 µM; IC50 (Jurkat [8]): 5 µM; fold change (FC) (Jurkat [11]): 2 - 5
Brc1ccc2c(-c3c[nH]c(-c4c[nH]c5cc(Br)ccc45)n3)c[nH]c2c1 [NORTOPSENTIN A] | – | – | – | – | – | IC50 (P388): 4.5 to 20.7 µM
COc1ccc2c(/C=N/NC(=O)C(=O)c3c[nH]c4ccccc34)c[nH]c2c1 | 34.6 | 52.1 | 38.8 | 103 | 95.6 | IC50 (HCT-116 [9]): 2.5 µM; IC50 (MCF7 [10]): 6.1 µM; IC50 (Jurkat [8]): 10 µM
COc1ccc(/C=N/NC(=O)C(=O)c2c[nH]c3ccccc23)cc1OC | 99.8 | 78.9 | 92.8 | 94.6 | 103 | –
Cn1c(-c2cn(C)c3ccccc23)cnc1-c1cn(C)c2cc(Br)ccc12 [N-METHYL NORTOPSENTIN B] | – | – | – | – | – | IC50 (P388): 4.5 to 20.7 µM
COc1ccc2[nH]cc(/C=N/NC(=O)C(=O)c3c[nH]c4ccccc34)c2c1 | 17.2 | 19.3 | 17.6 | 21.6 | 20.3 | IC50 (BT-474 [6]): 1.1 µM; IC50 (MDA-MB-231 [7]): 1.7 µM; IC50 (HCT-116 [9]): 0.4 µM; IC50 (MCF7 [10]): 1.8 µM; IC50 (Jurkat [8]): 0.5 µM; fold change (FC) (Jurkat [11]): 2 - 5
COc1ccc2c(/C=N/NC(=O)C(=O)c3c[nH]c4ccc(Br)cc34)c[nH]c2c1 | 91.4 | 74.1 | 71.4 | 112 | 92 | –
COc1ccc(-c2[nH]c3ccccc3c2/C=N/NC(=O)C(=O)c2c[nH]c3ccccc23)cc1 | 107 | 81.6 | 71.8 | 98.8 | 94.2 | –
O=C(N/C=C/c1c[nH]c2ccccc12)C(=O)c1c[nH]c2ccccc12 | – | – | – | – | – | IC50 (DU-145): 7.6 µM
